This is an account of results in paper PMC6273765, “Synthesis and Biological Evaluation of Novel Aromatic Imide-Polyamine Conjugates” (Molecules, 2016).

One data set deals with HCT-116 cells. The data set is described as follows: MTT cytotoxicity, HCT-116. Particulars: Homo sapiens, HCT-116, 48 h, mean of three experiments. The data set is classed as cell-based, human.
Data set [1] deals with HepG2 cells. Nature of the data set: MTT cytotoxicity, HepG2. The data set is classed as cell-based, human. The note with it: Homo sapiens, HepG2, 48 h, mean of three experiments.
Another data set concerns K562 cells. The data set is described as follows: MTT cytotoxicity, K562. Format: cell-based, human. The note with it: Homo sapiens, K562, 48 h, mean of three experiments.
A further data set has as its system MDA-MB-231 cells. Nature of the data set: MTT cytotoxicity, MDA-MB-231. The data set is classed as cell-based. The note with it: Homo sapiens, 48 h, mean of three experiments.
For the next data set, the system named is QSG-7701 cells. Nature of the data set: MTT cytotoxicity, QSG-7701 normal hepatocyte. Format: cell-based. Particulars: QSG7701, 48 h, normal hepatocyte cell line.
Data set [2] concerns H22 mouse hepatocellular carcinoma. The data set is described as follows: Subcutaneous H22 solid tumor growth inhibition. Format: in vivo, Kunming mice. Particulars: 11e 1 mg/kg, amonafide 5 mg/kg; for Inhibition Rate (tumor weight) / Tumor Weight: caudal vein, 7 consecutive days; for Inhibition Rate (tumor weight): vs normal saline; for Tumor Weight: control 2.17 ± 0.22 g; for No. Dead: solid tumor model. An excerpt: However, few in vivo studies provided limited messages for rational design of the conjugates in comparison to the plentiful in vitro data. Indeed, there are significant discrepancies between in vitro and in vivo experiments in many cases. In vivo trials, based on preliminary in vitro screens, provide more valuable messages for further drug development. To further evaluate the antitumor activity of 11e in vivo, we chose three H22 (mice hepatoma cell line) tumor transplant models: solid tumor (tumor growth inhibition evaluation), ascites tumor (live time evaluation), and pulmonary metastasis tumor (tumor metastasis evaluation).
All animal care and experimentation conformed to the Guide for the Care and Use of Laboratory Animals published by Henan University (HUSOM2016-162). For solid tumor development, 30 male Kunming mice (Laboratory Animal Center of Henan, Zhengzhou, China) aged 5 weeks (weighing 18–22 g) were injected subcutaneously with 2 × 10^6 H22 cells. […] On day 16, the mice were killed by cervical vertebra dislocation, and solid tumors were removed and weighed. The inhibitory rate was calculated as follows: inhibitory rate (%) = [(A − B)/A] × 100, where A was the mean tumor weight of the control group and B was that of the drug treated or positive group.

Data set [3] deals with H22 cells lung metastasis. Nature of the data set: H22 lung metastasis model. Format: in vivo, Kunming mice. The note with it: 11e 1 mg/kg; for Inhibition Rate (lung metastasis) / Metastatic Focus (No.): amonafide 5 mg/kg i.v., 7 consecutive days; for Inhibition Rate (lung metastasis): vs normal saline; for Metastatic Focus (No.): control 110.04 ± 15.38; for No. Dead: amonafide 5 mg/kg, lung metastasis model. An excerpt: Metastasis is the process by which tumors spread from the primary organ in which they arise to other sites in the body. In most cases, tumors that stay confined to one organ will not be fatal, tumors that have spread to other organs have a greater potential for causing harm. To test whether 11e was effective against an established lung metastasis, we injected H22 cells intravenously into 24 Kunming mice (5 × 10^6 cells each mouse). To ensure that all mice bore actively growing lung tumors before the drug treatment, pulmonary cancer was allowed to develop for 10 days.
H22 cells (5 × 10^6 cells per mouse) for Kunming mice were injected intravenous (i.v.) through the tail vein for tumor passive metastasis. To ensure all mice bore actively growing lung tumors before the drug treatment, pulmonary metastasis was allowed to develop for 10 days. […] On day 18, mice were killed by cervical vertebra dislocation, and lungs were removed and weighed, and then fixed in Bouin’s fluid. After the lungs were fixed, lung metastases nodus was numbered.

In another data set the test system is H22 cells. Nature of the data set: Survival time in mice bearing H22 cells (ascites). Format: in vivo, Kunming mice. Particulars: 11e 1 mg/kg, amonafide 5 mg/kg i.v.; for median survival time (MST): 7 consecutive days, control 12.75 ± 2.5 days. As to the method: Impacts of 11e on survival time in H22-bearing mice were evaluated by measuring the extension of the lifespan. The median survival time (MST) in control mice was (12.75 ± 2.5) days.
For calculation of the survival time, 30 male Kunming mice were inoculated via intraperitoneal (i.p.) injection with 1 × 10^6 H22 cells/mouse on day 0 and were randomly divided into three groups. […] The median survival time (MST) for each group was observed, and the antitumor activity of the drug was evaluated by measuring the increase of the lifespan. The extended lifespan rate was calculated as follows: extend rate (%) = (MST treated group/MST control group) × 100.

The nature of data set [4]: Systemic toxicity (body weight, organ index). The note with it: 11e 1 mg/kg, amonafide 5 mg/kg i.v. The procedure:
However, there are few reports about the systemic toxicology of naphthalimide-polyamine conjugates to support the above hypothesis. […] At the same time, the body weight was monitored to detect the dose-limited toxicity. On day 8, these mice were killed by cervical vertebra, and the organs and tissues, including samples of heart, liver, lung, kidney, spleen and thymus, were taken for the inspection of systemic toxicity.
Mice (8 per group) received 11e (1 mg/kg) and amonfide (5 mg/kg, i.v.) for 7 consecutive days and then were sacrificed. Heart, liver, kidney, lung and spleen were removed and weighed. The organ index was investigated for systemic toxicity evaluation: organ index (%) = (organ weight/body weight) × 100.

Data set [5] has as its system HepG2 cells. The data set is described as follows: Apoptosis by AO/EB staining (HCS). The data set is classed as cell-based, human. Particulars: HepG2, 3, 6, 12 μM, 48 h. An excerpt:
To appraise if novel naphthalimide-polyamine conjugates induce cell apoptosis, morphological study was applied after HepG2 cells were stained with AO/EB. […] To furnish more credible information about the apoptosis of HepG2 cells induced by compound 11e, we used the high content screening (HCS) technique to detect related apoptosis indicators. Mitochondria are vital cell organelles in the process of transmitting apoptosis signals, whereas the mitochondrial membrane potential (MMP) is a critical parameter related to mitochondrial function in cells. As a MMP specific cationic fluorescent dye, Rh123 is used to measure the change of MMP, which accumulates in healthy mitochondria with intact membrane potential and is absent in the depolarized mitochondria. […] Thus, the lysosomal mass/pH (Lys/pH) variation was detected by a basic fluorescent probe Lyso-Tracker Red which selectively accumulates in acidic lysosomes during cytotoxicity occurs.
HepG2 cells were seeded in 96 well plates (6 × 10^3 cells/well), cultured for 24 h to obtain a confluent monolayer and then treated with various concentrations of tested compounds for 48 h. […] Images were obtained on the High Content Screening (HCS, ArrayScan, Thermo Scientific) reader using the Target Activation BioApplication software (Thermo Scientific).

The subject of data set [6] is HepG2 cells. Nature of the data set: Mitochondrial membrane potential, Rh123 (HCS). The data set is classed as cell-based, human. The note with it: HepG2, 3, 6, 12 μM, 48 h. From the text: (§1) To appraise if novel naphthalimide-polyamine conjugates induce cell apoptosis, morphological study was applied after HepG2 cells were stained with AO/EB. […] To furnish more credible information about the apoptosis of HepG2 cells induced by compound 11e, we used the high content screening (HCS) technique to detect related apoptosis indicators. Mitochondria are vital cell organelles in the process of transmitting apoptosis signals, whereas the mitochondrial membrane potential (MMP) is a critical parameter related to mitochondrial function in cells. As a MMP specific cationic fluorescent dye, Rh123 is used to measure the change of MMP, which accumulates in healthy mitochondria with intact membrane potential and is absent in the depolarized mitochondria. Lysosomes, as cellular targets in cancer therapy, participate in various cell death profiles such as apoptosis and senescence. Thus, the lysosomal mass/pH (Lys/pH) variation was detected by a basic fluorescent probe Lyso-Tracker Red which selectively accumulates in acidic lysosomes during cytotoxicity occurs.
(§2) HepG2 cells were seeded in 96 well plates (6 × 10^3 cells/well), cultured for 24 h to obtain a confluent monolayer, and then treated with various concentrations of tested compounds for 48 h. […] Images were acquired on the ArrayScan HCS reader using the Target Activation BioApplication software.

In data set [7] the test system is HepG2 cells. The data set is described as follows: Lysosomal mass/pH, Lyso-Tracker Red (HCS). The data set is classed as cell-based, human. Particulars: HepG2, 3, 6, 12 μM, 48 h.
From the text: as §1, §2

Data set [8] concerns HepG2 cells. Nature of the data set: ROS generation, DCFH-DA (HCS). The note with it: HepG2, 3, 6, 12 μM, 48 h. The data set is classed as cell-based, human. As to the method: It is known that polyamine conjugates may produce reactive oxygen species (ROS). The elevated ROS could bring corresponding influences on MMP loss and LYS/pH destabilization, which generally activates the cell death. Therefore, the ROS generation was detected by the DCFH-DA (2′,7′-dichlorodihydrofluorescein diacetate) experiment.
HepG2 cells were seeded in 96 well plates (6 × 10^3 cells/well), cultured for 24 h to obtain a confluent monolayer, and then treated with various concentrations of tested compounds for 48 h. Cells were incubated with Rh123 (0.25 nM), or DCFH-DA (10 μM), or Lyso-Tracker Red (50 nM ) in the dark at 37 °C for 30 min. for the measurement of mitochondrial membrane potential (MMP), or reactive oxygen species (ROS) or lysosomal mass/pH staining, respectively. After being washed with PBS to remove excess dyes, cells were further stained with the nuclear dye Hoechst 33,342 (10 μM) in the dark at 37 °C for 20 min. Images were acquired on the ArrayScan HCS reader using the Target Activation BioApplication software.

Broadly, the IC50 is the concentration that inhibits the measured activity by half. As to `CN(C)CCN1C(=O)c2cccc3cc(N)cc(c23)C1=O` [Amonafide, amonafide, reference compound], the IC50 with HCT-116 cells amounted to 15.4 µM; in the data set on HepG2 cells [1], 6.57 µM; in the data set on K562 cells it was 6.31 µM; in the data set on MDA-MB-231 cells it was 7.98 µM; in the data set on QSG-7701 cells it was 55.5 µM. The “Inhibition Rate (tumor weight)” value in data set [2] came out at 43.79%. In data set [2], the “Tumor Weight” value was 1.22 ± 0.13 g. Besides, the “No. Dead” value in [2] was 0/9; in data set [3], 0/8. In addition, the “Inhibition Rate (lung metastasis)” value in data set [3] worked out at 40.70%; in data set [3] (listed as amonafide) it was 40.7%. The “Metastatic Focus (No.)” value in data set [3] turned out to be 65.25 ± 13.82. Further, the “life span increase vs control group” value with H22 cells came out at 1.53 fold. The “median survival time (MST)” value with H22 cells was 19.5 ± 3.6 days. Also, the “liver and spleen index” value in [4] (7 days, compared to controls) was “obviously decreased”. The body weight change entry in data set [4] (tumor-bearing mice, 7 consecutive days) was “some degree of weight loss”.
In the case of `Cl.Cl.Cl.Cl.NCCCNCCCCNCCCNCC(=O)NCCCN1C(=O)c2cccc3cccc(c23)C1=O` [11e, 2-(3-(4-(3-Aminopropylamino)butylamino)propylamino)-N-(3-(1,3-dioxo-1H-benzo[de]isoquinolin-2(3H)-yl)propyl)acetamide tetrahydrochloride], the IC50 is 5.12 µM in the data set on HCT-116 cells; 6.33 µM with HepG2 cells [1]; 2.86 µM in the data set on K562 cells; 12 µM with MDA-MB-231 cells; 53.9 µM in the data set with QSG-7701 cells. Moreover, the “apoptosis induction (AO/EB)” value in the data set on HepG2 cells [5] was “obvious apoptosis”. For the same compound, in the data set with HepG2 cells [6], the “green fluorescence of Rh123 (MMP)” value was “significantly decreased in a dose-dependent manner”. Moreover, in the data set on HepG2 cells [7], the “Lyso-Tracker Red fluorescence (lysosomal mass/pH)” value is listed as “remarkable accruement of red fluorescence”. In the data set on HepG2 cells [8], the “ROS generation (DCFH-DA)” value is “apparently increased ROS”. The “Inhibition Rate (tumor weight)” value in [2] stood at 70.92%. Besides, the “Tumor Weight” value in data set [2] amounted to 0.63 ± 0.21 g. Besides, the figures for the “No. Dead” value in data set [2] and in data set [3] were 0/9 and 0/8, respectively. Moreover, the “Metastatic Focus (No.)” value in data set [3] is recorded as 40.25 ± 8.15. In addition, the “life span increase vs control group” value in the data set with H22 cells came out at 2.41 fold. In the data set on H22 cells, the “median survival time (MST)” value was found to be 30.75 ± 4.4 days.
